Data from patent US20240277658A1, “NLRP3 ACTIVATORS FOR USE IN THE TREATMENT OF INFECTIOUS DISEASES OR CANCER BY ACTIVATING NLRP3 INFLAMMASOME” (ALBERT-LUDWIGS-UNIVERSITÄT FREIBURG, priority 2020, published 2024).
Where “and” joins values, the source holds several entries; their conditions need not be identical. Identical values can stand only once. Like-named read-outs stand apart in the source and are kept apart here.

Columns and labels:
NLRP3 inflammasome = target: T1, NLRP3 inflammasome (Mus musculus, UniProt Q8R4B8); assay: IL-1β release from LPS-primed BMDCs (ELISA) as readout of NLRP3 inflammasome activation; type: cell-based
T1 construct: endogenous in cells; host or cells: primary mouse bone marrow-derived dendritic cells (BMDCs), LPS-primed
T1 sequence (Q8R4B8 whole entry): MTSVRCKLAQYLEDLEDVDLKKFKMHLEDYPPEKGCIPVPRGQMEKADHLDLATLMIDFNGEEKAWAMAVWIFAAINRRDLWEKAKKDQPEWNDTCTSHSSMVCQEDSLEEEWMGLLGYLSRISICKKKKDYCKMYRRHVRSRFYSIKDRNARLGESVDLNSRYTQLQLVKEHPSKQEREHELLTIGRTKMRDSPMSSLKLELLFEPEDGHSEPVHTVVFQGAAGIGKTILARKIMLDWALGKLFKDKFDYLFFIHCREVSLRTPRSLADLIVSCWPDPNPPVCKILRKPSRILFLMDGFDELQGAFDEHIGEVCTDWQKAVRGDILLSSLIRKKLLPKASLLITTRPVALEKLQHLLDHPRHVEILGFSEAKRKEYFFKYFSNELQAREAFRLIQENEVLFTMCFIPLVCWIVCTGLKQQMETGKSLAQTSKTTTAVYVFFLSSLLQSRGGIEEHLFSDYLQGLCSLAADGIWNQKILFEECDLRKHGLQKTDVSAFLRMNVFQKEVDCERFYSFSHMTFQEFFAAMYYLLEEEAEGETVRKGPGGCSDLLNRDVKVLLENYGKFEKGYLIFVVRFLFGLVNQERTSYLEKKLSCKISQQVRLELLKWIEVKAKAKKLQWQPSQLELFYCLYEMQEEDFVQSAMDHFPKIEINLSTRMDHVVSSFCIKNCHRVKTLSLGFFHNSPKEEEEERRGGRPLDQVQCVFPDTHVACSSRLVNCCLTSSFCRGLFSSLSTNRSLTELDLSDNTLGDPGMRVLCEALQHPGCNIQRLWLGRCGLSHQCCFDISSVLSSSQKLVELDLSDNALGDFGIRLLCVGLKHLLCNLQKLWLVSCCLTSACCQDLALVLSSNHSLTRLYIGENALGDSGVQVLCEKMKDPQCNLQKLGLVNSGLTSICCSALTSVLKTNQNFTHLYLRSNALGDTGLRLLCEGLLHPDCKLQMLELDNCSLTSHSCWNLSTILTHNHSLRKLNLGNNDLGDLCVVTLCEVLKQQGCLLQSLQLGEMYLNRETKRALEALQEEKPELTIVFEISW
Protocol: (§1) This was tested in cell culture in several different in vitro assays classically used to investigate inflammasome activation. These include measuring inflammasome-dependent lytic cell death (pyroptosis) by detecting release of the cytosolic enzyme lactate dehydrogenase (LDH) using a commercial colorimetric assay and release of proinflammatory cytokines like IL-1β by enzyme-linked immunosorbent assay (ELISA), analyzing cleavage and activation of caspase-1 and IL-1β by immunoblotting and immunofluorescence imaging of ASC speck formation. Lytic cell death was determined via LDH release. Assay results for compounds are illustrated in the Tables below, wherein the concentration of the compounds tested had been 50 μM or as indicated in the table, and the concentration of the known activators has been tested with 5 μM of nigericin, 100 μM of each R837 and CL097. For classification of the activity of a given molecule, release of IL-1β was quantified as % of IL-1% of a respective control activator used for the experiment (highlighted in tables with bold letters). The compounds listes in Table 1 were classified into 4 groups depending on their ability to induce the NLRP3 inflammasome activation, assessed by % IL-1β release as compared to the positive control.
(§2) Mouse bone marrow-derived dendritic cells (BMDCs) were isolated from femurs and tibias previously described (Gross, Olaf, 2012, “Measuring the inflammasome”, Methods in molecular biology, Clifton, N.J., 844, pp. 199-222.). In brief, tibias and femurs were carefully removed and put to sterile 70% ethanol for 1 minute. Using a 22-G needle attached to a 20 ml-syringe filled with sterile flushing medium, the bone marrow was pressed through the mesh of a […] cell strainer. The cells were spun down by centrifugation at 400×g, 4° C. for 5 minutes and red blood cells lysed by resuspension and incubation for 5 minutes at room temperature in RBC lysis buffer. 9 ml of flushing medium were added and cells were again spun down by centrifugation at 400×g, 4° C. for 5 minutes. Cells were then resuspended in BMDC medium (RPMI, 10% fetal bovine serum, 1% penicillin-streptomycin100 U/ml, 20 ng/ml recombinant murine GM-CSF), counted and plated at a density of 0.5×10^6 cells ml^−1 in 10 ml medium and incubated at 37° C., 5% CO2 in a humidified incubator. After 2 days, 10 ml of fresh medium were added to the cells and after 4 days, the medium was fully exchanged to 20 ml of fresh medium. The cells were allowed to differentiate for 6 to 8 days before usage.
(§3) For canonical inflammasome activation BMDCs after 7-9 days of differentiation were harvested and counted with a Neubauer Chamber (Hecht Assistant) and the concentration was set to 1 Mio cells ml^−1. 100 μl cell suspension per well were seeded in 96-well plates. The cells were primed with 50 ng ml^−1 E. coli K12 ultra-pure LPS for 3 hours and subsequently treated with canonical inflammasome activators or experimental compounds for 3 hours if not indicated differently (incubation time FIG. 4D, 5, 7, 8, 11, 13-18: 3 h, FIG. 12: 4 h). Concentrations of the stimuli were as follows if not indicated differently: 5 μM nigericin, 100 μM imiquimod (also known as R837), 100 μM CL097, 100 μM R848, […] poly(dA:dT), 300 μg ml^−1 MSU. If an inhibitor was used before stimuli treatment, the inhibitor was added after 2.5 hours of priming and it was incubated for 30 minutes before inflammasome activation. Inhibitors were used as follows: 3 μM MCC950, 45 mM KCl, 30 μM ebselen (2-Phenyl-1,2-benzoselenazol-3-one), 5 μM cytochalasin D (see FIGS. 8, 11, 12 and 17).
(§4) All inflammasome stimulations were performed in three technical replicates for each condition. […]

BMDCs = assay: LDH release (lytic cell death, pyroptosis) from LPS-primed BMDCs; type: cell-based, mouse; settings: for Average (% positive control): LDH release; for cytotoxicity at 20 µM / cytotoxicity at 40 µM / cytotoxicity at 80 µM / cytotoxicity at 50 µM: Mus musculus, BMDC; for cytotoxicity at 50 µM: LPS-primed BMDCs
Protocol: as §1, §2, §3, §4

[1] = 20 μM, individual replicate values
[2] = 40 μM, individual replicate values
[3] = 80 μM, individual replicate values
[4] = IL-1β, 20 μM, positive control EN22
[5] = IL-1β, 40 μM, positive control EN22
[6] = IL-1β, 80 μM, positive control EN22
[7] = 20 μM, positive control EN22 20 μM
[8] = 40 μM, positive control EN22 20 μM
[9] = 80 μM, positive control EN22 20 μM
[10] = 20 μM, individual replicate values, read-out: LDH release (% of max.)
[11] = 20 μM, read-out: Average LDH release (% of max.)
[12] = 40 μM, individual replicate values, read-out: LDH release (% of max.)
[13] = 40 μM, read-out: Average LDH release (% of max.)
[14] = 80 μM, individual replicate values, read-out: LDH release (% of max.)
[15] = 80 μM, read-out: Average LDH release (% of max.)
[16] = IL-1β release, compound 50 μM, positive control nigericin 5 μM
[17] = compound 50 μM, LPS-primed BMDCs
[18] = single replicates, compound 50 μM, LPS-primed BMDCs
[19] = compound 50 μM, positive control nigericin 5 μM
[20] = compound 50 μM, read-out: Average LDH release (% of max.)
[21] = single replicates, compound 50 μM, read-out: LDH release (% of max.)

Structure (SMILES)	Average IL-1β (NLRP3 inflammasome; 20 μM) [ng/mL]	IL-1β (NLRP3 inflammasome; [1])	Average IL-1β (NLRP3 inflammasome; 40 μM) [ng/mL]	IL-1β (NLRP3 inflammasome; [2])	Average IL-1β (NLRP3 inflammasome; 80 μM) [ng/mL]	IL-1β (NLRP3 inflammasome; [3])	Average (% positive control) (NLRP3 inflammasome; [4])	Average (% positive control) (NLRP3 inflammasome; [5])	Average (% positive control) (NLRP3 inflammasome; [6])	Average (% positive control) (BMDCs; [7])	Average (% positive control) (BMDCs; [8])	Average (% positive control) (BMDCs; [9])	cytotoxicity at 20 µM (BMDCs; [10]) [%]	cytotoxicity at 20 µM (BMDCs; [11]) [%]	Average (% positive control) (NLRP3 inflammasome; [16])	Average IL-1β (NLRP3 inflammasome; [17]) [ng/mL]	IL-1β (NLRP3 inflammasome; [18])	Average (% positive control) (BMDCs; [19])	cytotoxicity at 50 µM (BMDCs; [20]) [%]	cytotoxicity at 50 µM (BMDCs; [21]) [%]	further results
O=C(Nc1ccccc1)Nc1ccc2ncccc2n1 [JB002, 1-(1,5-naphthyridin-2-yl)-3-phenylurea]	0.045	0.038 ng/mL and 0.050 ng/mL and 0.047 ng/mL	0.192	0.190 ng/mL and 0.197 ng/mL and 0.1902 ng/mL	0.503	0.464 ng/mL and 0.505 ng/mL and 0.540 ng/mL	2.292	9.827	25.697	13.887	17.760	30.084	7.72	7.4	–	–	–	–	–	–	cytotoxicity at 40 µM (BMDCs; [12]): 9.38%; cytotoxicity at 40 µM (BMDCs; [13]): 9.46%; cytotoxicity at 80 µM (BMDCs; [14]): 14%; cytotoxicity at 80 µM (BMDCs; [15]): 16%
O=C(Nc1ccccc1)Nc1ccc2ncc(Br)cc2c1 [JB004, 1-(3-bromoquinolin-6-yl)-3-phenylurea]	0.971	0.966 ng/mL and 0.765 ng/mL and 1.182 ng/mL	1.507	1.350 ng/mL and 1.479 ng/mL and 1.691 ng/mL	1.657	1.684 ng/mL and 1.413 ng/mL and 1.876 ng/mL	49.601	76.971	84.675	39.589	51.749	68.244	31	21.1	–	–	–	–	–	–	cytotoxicity at 40 µM (BMDCs; [12]): 25.6%; cytotoxicity at 40 µM (BMDCs; [13]): 27.6%; cytotoxicity at 80 µM (BMDCs; [14]): 34.3%; cytotoxicity at 80 µM (BMDCs; [15]): 36.4%
N#Cc1ccc(NC(=O)Nc2ccc3ncccc3c2)cc1 [JB011, 1-(4-cyanophenyl)-3-(quinolin-6-yl)urea]	0.576	0.562 ng/mL and 0.612 ng/mL and 0.553 ng/mL	0.604	0.538 ng/mL and 0.564 ng/mL and 0.711 ng/mL	0.752	0.912 ng/mL and 0.737 ng/mL and 0.607 ng/mL	29.413	30.877	38.413	21.883	24.799	31.296	11.5	11.7	–	–	–	–	–	–	cytotoxicity at 40 µM (BMDCs; [12]): 12.6%; cytotoxicity at 40 µM (BMDCs; [13]): 13.2%; cytotoxicity at 80 µM (BMDCs; [14]): 16.4%; cytotoxicity at 80 µM (BMDCs; [15]): 16.7%
N#CCOc1ccc(NC(=O)Nc2ccccc2)cc1 [L01.002, 1-[4-(cyanomethoxy)-phenyl]-3-phenylurea]	–	–	–	–	–	–	–	–	–	–	–	–	–	–	2.590	0.186	0.144 ng/mL and 0.249 ng/mL and 0.164 ng/mL	13.662	9.99	8.07	–
CC(C)=CC(=O)Nc1cccc(NC(=O)Nc2ccccc2)c1 [L01.003, 3-methyl-N-{3-[(phen-ylcarbamoyl)amino]-phenyl}but-2-enamide]	–	–	–	–	–	–	–	–	–	–	–	–	–	–	2.301	0.165	0.167 ng/mL and 0.153 ng/mL and 0.175 ng/mL	10.676	7.81	6.28	–
O=C(Nc1ccccc1)Nc1ccc(N2CCCC2)cc1 [L01.004, 3-phenyl-1-[4-(pyrrol-idin-1-yl)phenyl]urea]	–	–	–	–	–	–	–	–	–	–	–	–	–	–	19.737	1.415	1.192 ng/mL and 1.485 ng/mL and 1.567 ng/mL	23.074	16.9	15.2	–
CC(C)C(NC(=O)Nc1cccc(C(F)(F)F)c1)c1nc(-c2cccnc2)no1 (stereo not drawn) [L01.005, 3-{2-methyl-1-[3-(pyridin-3-yl)-1,2,4-oxadiazol-5-yl]propyl}-1-[3-(trifluoromethyl)-phenyl]urea]	–	–	–	–	–	–	–	–	–	–	–	–	–	–	0.980	0.070	0.053 ng/mL and 0.074 ng/mL and 0.084 ng/mL	20.238	14.8	9.31	–
COc1ccc(F)cc1NC(=O)NC(c1nc(-c2cccnc2)no1)C(C)C (stereo not drawn) [L01.007, 1-(5-fluoro-2-methoxy-phenyl)-3-{2-methyl-1-[3-(pyridin-3-yl)-1,2,4-oxadiazol-5-yl]propyl}-urea]	–	–	–	–	–	–	–	–	–	–	–	–	–	–	16.422	1.177	0.859 ng/mL and 1.572 ng/mL and 1.101 ng/mL	27.756	20.3	17.8	–
O=C(Nc1ccccc1)Nc1ccc(C(=O)N2CCC2)cc1 [L01.008, 1-[4-(azetidine-1-carbon-yl)phenyl]-3-phenylurea]	–	–	–	–	–	–	–	–	–	–	–	–	–	–	4.638	0.332	0.361 ng/mL and 0.324 ng/mL and 0.313 ng/mL	13.046	9.54	11	–
